# Results published in patent US8642040B2, “Methods for promoting myelination, neuronal survival and oligodendrocyte differentiation via administration of Sp35 or TrkA antagonists” (Biogen Idec MA Inc., priority 2006, dated 2014).
# Assays:
# Assay type in all cases: cell-based, rat
# [1] = test system: DRG-oligodendrocyte co-cultures; assay: DRG-oligodendrocyte co-culture myelination, Western blot for MBP and MAG; conditions: FIG. 7
# Source text: CNS myelination in the presence of NGF and either an Sp35 antagonist (Sp35-DN) or a TrkA antagonist (TrkA-DN) was examined. 3 week old DRG and oligodendrocyte cocultures (prepared as described in Example 3) were infected with lentiviruses, at an MOI of 2 per cell, expressing either full-length or dominant negative Sp35, full-length or dominant negative Nogo Receptor, full-length or dominant negative Taj, full-length or dominant negative p75, and full-length or dominant negative TrkA. Lentiviruses were prepared as described in Example 3 and as follows. Rat p75 full length (FL-p75, amino acid residues 1-425), p75 dominant negative (DN-p75, amino acid residues 1-275), human TrkA full length (FL-TrkA, amino acid residues 1-796), TrkA dominant negative (DN-TrkA, amino acid residues 1-441), human Taj full length (FL-Taj, amino acid residues 1-417), Taj dominant negative (DN-Taj, amino acid residues 1-192), rat Nogo receptor full length (FL-NgR, amino acid residues 1-473), Nogo receptor dominant negative (DN-NgR, amino acid residues 28-310). DNA sequence was inserted into the NotI and BamHI sites of HRST-IRESeGFP lentivirus vector. Plasmids were transfected into 293 cells to produce lentivirus as described in Rubinson et al. Nat. Genetics 33:401-406 (2003).
# Co-culture lysates were examined at 3 weeks and analyzed by Western blot as described previously. The blots were probed with polyclonal antibodies to MAG and to MBP. The myelin proteins MAG and MBP were used as markers for myelination.
# The TrkA compound antagonist K525a was also tested in DRG-oligodendrocyte cocultures for its ability to promote myelination.
# The myelin proteins MAG and MBP were used to determine whether TrkA was upstream of Sp35 in inhibiting myelination in DRG-oligodendrocyte co-cultures. Oligodendrocyte-DRG co-cultures were prepared as described in Example 3. […]
# Fresh media was changed every three days. […] Lysates were subjected to 4-20% SDS-PAGE, and analyzed by Western blotting with an antibody to MBP, MAG and Sp35. […]
# [2] = test system: Oligodendrocyte/DRG co-cultures; assay: Oligodendrocyte/DRG co-culture myelination, MBP immunofluorescence
# Description: Enriched populations of oligodendrocytes were grown from Female Long Evans post-natal day 2 (P2) rats. Briefly, the forebrain was dissected out and placed in Hank's buffered salt solution (HBSS) (Invitrogen, Grand Island, N.Y.). The tissue was cut into 1 mm fragments and incubated at 37° C. for 15 min in 0.01% trypsin and 10 μg/ml DNase. Dissociated cells were plated on poly-L-lysine-coated T75 tissue culture flasks and grown at 37° C. for 10 days in DMEM medium with 20% fetal calf serum (Invitrogen). Oligodendrocyte precursors (A2B5+) were collected by shaking the flask overnight at 200 rpm at 37° C., resulting in a 95% pure population. Cultures were maintained in high glucose DMEM medium containing FGF/PDGF (Peprotech) (10 ng/ml) for 1 week.
# DRG cultures were prepared as follows. Embryonic dorsal root ganglia (DRG) neurons were grown in vitro as previously described in Mi et al., Nat. Neurosci. 8:745-51 (2005) and Kleitman et al. “Tissue culture methods for the study of myelination.” Culturing Nerve Cells. Banker and Goslin, eds. Cambridge Mass.: MIT Press, 337-377 (1991). Briefly, dorsal root ganglia, dissected from embryonic day 15 (E15) Long Evans rats, were plated on poly-D-lysine (100 μg/ml)-coated cover slips for 2 weeks and grown in Neurobasal medium supplemented with B27 (Invitrogen) in the presence or absence of 100 ng/ml nerve growth factor (BD Biosciences). To remove proliferating glial cells, the cultures were pulsed twice with fluorodeoxyuridine (20 μM) from days 2-6 and from days 8-10.
# Oligodendrocyte-DRG co-cultures were prepared as follows. A2B5+ oligodendrocyte progenitor cells and DRG neuron drop cultures were prepared as above. One day after oligodendrocyte progenitors were added to DRG neurons, co-cultures were infected with lentivirus expressing GFP (control), dominant-negative Sp35 or full length Sp35 at 2 MOI per cell. DNA sequences used for lentiviral construction were, mouse Sp35 full length (FL-Sp35, encoding amino acid residues 34-614), Sp35 dominant negative (DN-Sp35, encoding amino acid residues 34-581). DNA sequences were inserted into the NotI and BamHI sites of HRST-IRESeGFP lentivirus vector. Plasmids were transfected into 293FT cells to produce lentivirus as described in Rubinson et al. Nat. Genetics 33:401-406 (2003).
# Oligodendrocyte/DRG co-cultures were prepared as described in Example 3. The co-cultures were treated with increasing concentrations of Sp35-Fc or control-Fc for 3 weeks. Monoclonal antibodies against MBP were used to determine MBP protein concentration and for immunofluorescence experiments (Sternberger Monoclonals). […]
# [3] = test system: Sp35; assay: RT-PCR for Sp35 in purified DRGs with or without NGF; conditions: 100 ng/ml NGF for 24 hours; FIG. 9A
# Description: RT-PCR for TrkA, Sp35 and GAPDH was performed on purified OPCs, SCs and DRGs in the presence or absence of NGF or BDNF as follows. Cultures of OPCs, SCs and DRGs were prepared as described above. Wells of the tissue culture dishes were treated with either 100 ng/ml of NGF or 100 ng/ml of BDNF for 24 hours prior to mRNA isolation. Cellular mRNA was extracted using the Absolutely RNA miniprep kit (Stratagene). Equal amounts of mRNA were subjected to RT-PCR. The primer sets used for the PCR reactions are as follows: […]
# [4] = test system: Sp35; assay: Sp35 expression in co-cultures, DRG neuronal and oligodendrocyte cultures treated with NGF
# Description: Oligodendrocyte—DRG co-cultures were prepared as described previously. Various concentrations of NGF (0, 10, 50 and 100 ng/ml) were added to oligodendrocyte—DRG co-cultures, DRG neuronal cultures and oligodendrocyte cultures. In all cultures expression of Sp35 and phosphorylated TrkA was examined by […] or immuno-histochemical staining.
molecule,measurement,setting,value
COC(=O)[C@@]1(O)C[C@H]2O[C@]1(C)n1c3ccccc3c3c4c(c5c6ccccc6n2c5c31)C(=O)NC4 [K525a],"myelination, as measured by the presence of MBP",[1]; concentration 1 nM,promoted myelination
same,"myelination, as measured by the presence of MBP",[1]; concentration 3 nM,promoted myelination
"NGF: Nerve Growth Factor, the TrkA ligand",myelination in co-culture,[2]; in the presence of NGF,inhibited
same,Sp35 mRNA in DRGs,[3],induction
same,Sp35 in DRG neurons by immunofluorescence,"[4]; 100 ng/ml of NGF, FIG. 10",Upregulation
same,Sp35 expression in oligodendrocyte/DRG cocultures,"[4]; NGF 0, 10, 50 and 100 ng/ml, FIG. 8",increased
same,Sp35 expression in cultured oligodendrocytes,"[4]; NGF 0, 10, 50 and 100 ng/ml, FIG. 9",remained constant
"Sp35-Fc: extra-cellular portion of human Sp35 (residues 1-532) fused to the hinge and Fc region of human IgG1 (protein, left off: a dimerising Fc or GST, extra-cellular portion of human Sp35 (residues 1-532) fused to the hinge and Fc region of human IgG1) TGCPPRCECSAQDRAVLCHRKRFVAVPEGIPTETRLLDLGKNRIKTLNQDEFASFPHLEELELNENIVSAVEPGAFNNLFNLRTLGLRSNRLKLIPLGVFTGLSNLTKLDISENKIVILLDYMFQDLYNLKSLEVGDNDLVYISHRAFSGLNSLEQLTLEKCNLTSIPTEALSHLHGLIVLRLRHLNINAIRDYSFKRLYRLKVLEISHWPYLDTMTPNCLYGLNLTSLSITHCNLTAVPYLAVRHLVYLRFLNLSYNPISTIEGSMLHELLRLQEIQLVGGQLAVVEPYAFRGLNYLRVLNVSGNQLTTLEESVFHSVGNLETLILDSNPLACDCRLLWVFRRRWRLNFNRQQPTCATPEFVQGKEFKDFPDVLLPNYFTCRRARIRDRKAQQVFVDEGHTVQFVCRADGDPPPAILWLSPRKHLVSAKSNGRLTVFPDGTLEVRYAQVQDNGTYLCIAANAGGNDSMPAHLHVRSYSPDWPHQPNKTFAFISNQPGE",MBP positive oligodendrocytes and myelin internodes,"[2]; 100 ng/ml NGF, 14 days, compared to controls, FIG. 13",enhancement
same,number of MBP+ oligodendrocytes,"[2]; co-culture in the presence of NGF, treated 3 weeks, vs control-Fc, FIG. 5",increased
same,"number of MBP+ cells, dependence on concentration","[2]; increasing concentrations of Sp35-Fc, 3 weeks, NGF present, FIG. 5C",increased as the concentration of the Sp35 antagonist increased
same,"myelination, as measured by the presence of MBP",[1]; Sp35-Fc as comparator for K525a,promoted myelination
